In patent US20030211577A1, “Novel G protein-coupled receptor, GAVE7” (priority 2001, published 2003):

System: GAVE7 expression in THP-1 cells
Assay: Immune cell regulation: GAVE7 expression in PMA-differentiated THP-1 cells by Northern blot or TaqMan assay
Format: cell-based
Details: PMA differentiated THP-1 cells stimulated with LPS (10 μg/ml) for 4 hours and 24 hours, actin control
Experimental: THP-1 cells were obtainied from the American Type Culture Collection (Manassas, Va.) and maintained in RPMI culture medium (RPMI 1640, 100 IU/ml penicillin-streptomycin, 10% heat-inactivated fetal bovine serum) at 37° C. in a humidfied 95% air/5% CO2 tissue culture incubator. THP-1 cells were treated with 10 nM phorbol-12-myristate-13-acetate (PMA) and incubated overnight to differentiate the monocyte into an adhereent macrophage-type cell. The differentiated cells adhere, stop proliferating and express high levels of CD14. LPS activates macrophages and elicits an inflammatory response. The cells were washed once with the culture medium and grown for an additional 48 hours in the absence of PMA. The PMA differentiated cells were stimulted with or without LPS (10 μg/ml) for 4 hours and 24 hours.
The cells then were assayed for GAVE7 expression by Northern blot or TaqMan assay. Cell exposed to actin served as a control.

Question: How did the GAVE7 expression turn out when Lipopolysaccharide [LPS] was run?
Answer: The GAVE7 expression was “down-regulated”.
